According to paper PMC10945559, “Forgotten Natural Products: Semisynthetic Development of Blasticidin S As an Antibiotic Lead” (ACS Medicinal Chemistry Letters, 2024):
Values after ≈ are worked out from the molar mass of the structure shown. Like-named read-outs stand apart in the source and are kept apart here.

Experiments:
in vitro = format: cell-based, human; settings: human; MRC-5 (lung fibroblast); 24 h; one biological replicate (n = 3); read-out: CC50 for human cells
Protocol: (§1) as a range from biological replicates. Inhibition curves were generated using Prism (GraphPad).
(§2) The IC50 values reported in Table 2 are the average of the two biological replicates ± standard […]
(§3) Cytotoxicity Assay Procedure
(§4) Human lung fibroblast cells, MRC -5 (CCL-171), were cultured at 37℃ with 5% CO2 and were plated at 5000 cells/well in a 96 -well plate. Compounds 1, 2, and 15-22 were initially prepared at concentrations of 5.12 mg/mL in a vehicle of 50% DMSO. Dilutions of the compounds (4 – 512 μg/mL) were then prepared in growth medium containing Dulbecco’s modified Eagle’s medium (DMEM) with high glucose, L -glutamine, and sodium pyruvate supplemented with 10% fetal bovine serum (FBS), 1% non -essential amino acids, and 0.1% gentamicin sulfate, and 25mM HEPES. The vehicle (50% DMSO) was also prepared via the sa me dilution series to serve as a control. Growth media was removed from the cells and replaced with the same volume of each compound dilution. Cells were incubated for 24 h , after which CellTiter 96® AQueous One Solution Reagent was added to each well as recommended by the manufacturer’s protocol (Promega CellTiter 96 AQueous One Solution Cell Proliferation Assay) and further incubated for 4 h. After incubation, absorbance was measured at 490 nm on an Infinite M plex multimode microplate reader with i -control Tecan software. Viability was calculated by subtracting media only absorbance values and normalizing to the vehicle control at each concentration. The presented data is one assay performed in triplicate that is representative of multiple trials. Data for the 256 and 512 μg/mL concentrations were removed from analysis due to vehicle toxicity […]
(§5) CC50 concentrations were determined via the ED50 Plus v1.0 software (https://archive.org/details/ed50v10_zip).
Figure S41. The effect of compounds on cell viability. The lines represent non -linear regression curves, and error bars represent means ± […]
SD (n=3). […]

Pseudomonas aeruginosa = test: Broth microdilution antibacterial assay; format: cell-based; settings: for Selectivity index (CC50/IC50): MRC-5 CC50 / P. aeruginosa IC50; for IC50 / MIC: Pseudomonas aeruginosa
Protocol: (§6) Antibacterial Assay Procedure
(§7) Broth Microdilution Assays
(§8) Media and solutions were autoclaved or sterile filtered prior to use and manipulations were carried out in a laminar flow hood. Antibacterial testing was performed in polypropylene 96 -well flat bottom plates. The minimal inhibitory concentration of blasticidin S ( 1) hydrochloride, P10 (2), and derivatives 15–22 were assessed against Staphylococcus aureus ΔNorA, S. aureus 8810, methicillin-resistant S. aureus (MRSA) ATCC 43300, Enterococcus faecalis ATCC 29212, vancomycin-resistant Enterococcus, Klebsiella pneumoniae ATCC 29665, Pseudomonas aeruginosa, and Acinetobacter baumannii ATCC 17978 using serial dilutions. Doxycycline (Gold Bio) as a positive control and the vehicle as a negative control. Stock solutions of each compound were prepared at 5.12 mg/mL in 50% DMSO/water and serially diluted in 50% DMSO/water to create master plates. From the master plates, 10 μL of each dilution was applied to test plates using a Bravo automated liquid transfer system (Agilent). Bacteria previously grown overnight (37 °C, 120 – 200 RPM), in LB broth were diluted to an OD600 of 0.0 5 in cation-adjusted Mueller-Hinton broth, grown to an OD600 of ~0.5, and diluted to an OD600 of 0.004 in cation-adjusted Mueller-Hinton broth. These diluted cultures were applied to the test plates (190 μL per test well) resulting in final concentrations of the test compounds of 256–2 μg/mL. Growth controls (wells with inoculated media but no vehicle or test compounds) were included to assess any potential toxicity from the vehicle. The plates were incubated at 37 °C for 16–18 h, except for VRE and E. faecalis, which were incubated at 37 °C for 24 h. Inhibition was determined by measuring the optical density at 600 nm (OD600) with a Cytation 3 plate reader (BioTek). The optical density measurements were normalized to the positive and negative controls and the vehicle and growth controls were compared and found to be indistinguishable, indicating no toxicity from the vehicle used. The MIC was the lowest concentration that inhibited >90% of growth. Two biological replicates were performed in duplicate. MIC values are reported […]
as §1, §2, §3, §4, §5

[1] = tested on: Klebsiella pneumoniae ATCC 29665; test: Broth microdilution antibacterial assay; format: cell-based; settings: for IC50 / MIC: Klebsiella pneumoniae, ATCC29665; for Selectivity index (CC50/IC50): MRC-5 CC50 / K. pneumoniae IC50
Protocol: as §6, §7, §8, §1, §2, §3, §4, §5

[2] = tested on: vancomycin-resistant Enterococcus (VRE); test: Broth microdilution antibacterial assay; format: cell-based; settings: for IC50 / MIC: Enterococcus; for Selectivity index (CC50/IC50): MRC-5 CC50 / VRE IC50
Protocol: as §6, §7, §8, §1, §2, §3, §4, §5

[3] = tested on: Enterococcus faecalis ATCC 29212; test: Broth microdilution antibacterial assay; format: cell-based; settings: for IC50 / MIC: Enterococcus faecalis; for Selectivity index (CC50/IC50): MRC-5 CC50 / E. faecalis IC50
Protocol: as §6, §7, §8, §1, §2, §3, §4, §5

[4] = tested on: Staphylococcus aureus ΔNorA; test: Broth microdilution antibacterial assay; format: cell-based; settings: for Selectivity index (CC50/IC50): MRC-5 CC50 / S. aureus ΔNorA IC50; for IC50 / MIC: Staphylococcus aureus
Protocol: as §6, §7, §8, §1, §2, §3, §4, §5

[5] = tested on: Acinetobacter baumannii ATCC 17978; test: Broth microdilution antibacterial assay; format: cell-based; settings: for IC50 / MIC: Acinetobacter baumannii, ATCC17978; for Selectivity index (CC50/IC50): MRC-5 CC50 / A. baumannii IC50
Protocol: as §6, §7, §8, §1, §2, §3, §4, §5

[6] = tested on: methicillin-resistant S. aureus (MRSA) ATCC 43300; test: Broth microdilution antibacterial assay; format: cell-based, Staphylococcus aureus; settings: for Selectivity index (CC50/IC50): MRC-5 CC50 / MRSA IC50; for IC50 / MIC: Staphylococcus aureus
Protocol: as §6, §7, §8, §1, §2, §3, §4, §5

S. aureus 8810 = test: Broth microdilution antibacterial assay; format: cell-based, Staphylococcus aureus; settings: for Selectivity index (CC50/IC50): MRC-5 CC50 / S. aureus IC50
Protocol: as §6, §7, §8, §1, §2, §3, §4, §5

CCCNC(=O)[C@H]1O[C@@H](n2ccc(N)nc2=O)C=C[C@@H]1NC(=O)C[C@@H](N)CCN(C)C(=N)N [Compound 17]
CC50 at 24 h (in vitro): 61.1 µg/mL (≈ 132 µM) | Selectivity index (CC50/IC50) (Pseudomonas aeruginosa): 3.2 | IC50 (Pseudomonas aeruginosa): 19.3 ± 1.6 µg/mL (≈ 41.6 µM) | MIC (Pseudomonas aeruginosa): 64 µg/mL (≈ 138 µM) | IC50 [1]: 44.9 ± 3.2 µg/mL (≈ 96.9 µM) | MIC [1]: 128 to 256 µg/mL (≈ 276 to 552 µM) | Selectivity index (CC50/IC50) [1]: 1.4 | IC50 ([2]; VRE): 16.8 ± 3.1 µg/mL (≈ 36.2 µM) | MIC ([2]; VRE, 24 h): 64 µg/mL (≈ 138 µM) | MIC ([2]; VRE, read-out: Average Activity against VRE): 64 µg/mL (≈ 138 µM) | Selectivity index (CC50/IC50) [2]: 3.6 | IC50 ([3]; ATCC29212): 9.3 ± 1.7 µg/mL (≈ 20.1 µM) | MIC ([3]; ATCC29212, 24 h): 16 to 32 µg/mL (≈ 34.5 to 69 µM) | MIC ([3]; ATCC29212, read-out: Average Activity against E. faecalis): 16 µg/mL (≈ 34.5 µM) | Selectivity index (CC50/IC50) [3]: 6.6 | Selectivity index (CC50/IC50) [4]: 3.9 | IC50 [4]: 15.8 ± 1.1 µg/mL (≈ 34.1 µM) | MIC [4]: 64 to 128 µg/mL (≈ 138 to 276 µM) | IC50 [5]: 39.3 ± 1.9 µg/mL (≈ 84.8 µM) | MIC [5]: > 256 µg/mL | Selectivity index (CC50/IC50) [5]: 1.6 | Selectivity index (CC50/IC50) [6]: 8.1 | IC50 [6]: 7.6 ± 0.8 µg/mL (≈ 16.4 µM) | MIC [6]: 16 to 32 µg/mL (≈ 34.5 to 69 µM) | MIC ([6]; read-out: Average Activity against MRSA): 24 µg/mL (≈ 51.8 µM) | Selectivity index (CC50/IC50) (S. aureus 8810): 16 | IC50 (S. aureus 8810; Staphylococcus aureus, 8810): 3.9 ± 0.1 µg/mL (≈ 8.41 µM) | MIC (S. aureus 8810; Staphylococcus aureus, 8810): 16 to 32 µg/mL (≈ 34.5 to 69 µM) | MIC (S. aureus 8810; Staphylococcus aureus, 8810, read-out: Average Activity against S. aureus): 24 µg/mL (≈ 51.8 µM)

CN(CC[C@H](N)CC(=O)N[C@H]1C=C[C@H](n2ccc(N)nc2=O)O[C@@H]1C(=O)NCCc1ccccc1)C(=N)N [Compound 22]
CC50 at 24 h (in vitro): 58.4 µg/mL (≈ 111 µM) | Selectivity index (CC50/IC50) (Pseudomonas aeruginosa): 3.5 | IC50 (Pseudomonas aeruginosa; P. aeruginosa, average of two biological replicates ± S.D., read-out: IC50): 16.5 ± 2.1 µg/mL (≈ 31.4 µM) | MIC (Pseudomonas aeruginosa; P. aeruginosa, lowest concentration inhibiting >90% of growth, range from biological replicates, read-out: MIC): 64 µg/mL (≈ 122 µM) | IC50 ([1]; K. pneumoniae, average of two biological replicates ± S.D., read-out: IC50): 36.9 ± 4.7 µg/mL (≈ 70.2 µM) | MIC ([1]; K. pneumoniae, lowest concentration inhibiting >90% of growth, range from biological replicates, read-out: MIC): 256 µg/mL (≈ 487 µM) | Selectivity index (CC50/IC50) [1]: 1.6 | MIC ([2]; VRE, average MIC, Table S3, read-out: Average Activity against VRE): 32 µg/mL (≈ 60.9 µM) | MIC ([2]; VRE, 24 h, lowest concentration inhibiting >90% of growth, range from biological replicates, read-out: MIC): 32 µg/mL (≈ 60.9 µM) | IC50 ([2]; VRE, average of two biological replicates ± S.D., read-out: IC50): 11.1 ± 0.8 µg/mL (≈ 21.1 µM) | Selectivity index (CC50/IC50) [2]: 5.2 | increase in potency compared to 1 ([2]; VRE, MIC): 8 fold | MIC ([3]; ATCC29212, E. faecalis, 24 h, lowest concentration inhibiting >90% of growth, range from biological replicates, read-out: MIC): 8 µg/mL (≈ 15.2 µM) | IC50 ([3]; ATCC29212, E. faecalis, average of two biological replicates ± S.D. (18: one biological replicate), read-out: IC50): 6.1 ± 2.6 µg/mL (≈ 11.6 µM) | MIC ([3]; ATCC29212, average MIC, Table S3, read-out: Average Activity against E. faecalis): 8 µg/mL (≈ 15.2 µM) | Selectivity index (CC50/IC50) [3]: 9.6 | Selectivity index (CC50/IC50) [4]: 3.0 | IC50 [4]: 19.3 ± 0.2 µg/mL (≈ 36.7 µM) | MIC [4]: 128 µg/mL (≈ 244 µM) | IC50 ([5]; A. baumannii, average of two biological replicates ± S.D., read-out: IC50): 183 ± 19 µg/mL (≈ 348 µM) | MIC ([5]; A. baumannii, lowest concentration inhibiting >90% of growth, range from biological replicates, read-out: MIC): > 256 µg/mL | Selectivity index (CC50/IC50) [5]: 0.3 | Selectivity index (CC50/IC50) [6]: 15 | increase in potency compared to 1 ([6]; MRSA, MIC): 16 to 32 fold | better activity than the phenethyl ester of the previous study ([6]; MRSA, ester data ref 8): 4- to 8 fold | IC50 ([6]; MRSA, average of two biological replicates ± S.D., read-out: IC50): 4 ± 0.3 µg/mL (≈ 7.61 µM) | MIC ([6]; MRSA, lowest concentration inhibiting >90% of growth, range from biological replicates, read-out: MIC): 8 to 16 µg/mL (≈ 15.2 to 30.4 µM) | MIC ([6]; average MIC, Table S3, read-out: Average Activity against MRSA): 12 µg/mL (≈ 22.8 µM) | Selectivity index (CC50/IC50) (S. aureus 8810): 15 | better activity than the phenethyl ester of the previous study (S. aureus 8810; S. aureus, ester data ref 8): 4- to 8 fold | IC50 (S. aureus 8810; Staphylococcus aureus, 8810, S. aureus, average of two biological replicates ± S.D., read-out: IC50): 3.8 ± 0.2 µg/mL (≈ 7.23 µM) | MIC (S. aureus 8810; Staphylococcus aureus, 8810, S. aureus, lowest concentration inhibiting >90% of growth, range from biological replicates, read-out: MIC): 16 µg/mL (≈ 30.4 µM) | MIC (S. aureus 8810; Staphylococcus aureus, 8810, average MIC, Table S3, read-out: Average Activity against S. aureus): 12 µg/mL (≈ 22.8 µM)
